Source: patent US20240293421A1, “CRYSTALLINE COMPOSITION OF TILDACERFONT AND METHODS OF USE AND PREPARATION THEREOF” (Spruce Biosciences, Inc., priority 2021, published 2024)

Tests used:
[1] = Stability under accelerated aging conditions (40±2° C./75±5% RH); format: physicochemical; set-up: key to Related Substances by HPLC: a. C07102401-F-Imp1 / Related Substances by HPLC: b. C07102401-F-Imp2 / Related Substances by HPLC: c. Any unspecified impurity / Related Substances by HPLC: d. Total impurities: BDRL: below disregard limit; settings: for Description / Identification by FT-IR / Identification by XRPD / Related Substances by HPLC: a. C07102401-F-Imp1 / Related Substances by HPLC: b. C07102401-F-Imp2 / Related Substances by HPLC: c. Any unspecified impurity / Related Substances by HPLC: d. Total impurities / Water Content by KF / Assay of Compound 1 by HPLC: accelerated aging 40±2° C./75±5% RH; for Assay of Compound 1 by HPLC: on anhydrous basis and solvent free basis
Text: (§1) To determine the stability of the crystalline compositions prepared comprising the methods described herein, crystalline compositions comprising Compound 1 and oxalic acid were formulated. Samples of the crystalline composition comprising Compound 1-oxalic acid co-crystal were packed in a transparent low-density polyethylene (LDPE) bag, and closed by twisting the bag and tying it with a strip seal. The transparent LDPE bag was then placed in a black LDPE bag that was twisted and tied with a strip seal. The bags were then placed in a high-density polyethylene container. The samples were then subjected to accelerated aging conditions (40±2° C./75±5% relative humidity (RH)) or long-term storage conditions (25±2° C./60±5% RH). Sample stability measurements in each condition were measured at baseline (before exposure to accelerated aging conditions or long-term storage conditions), and one month, two months, and three months after exposure to said conditions. Sample stability measurements included a description of the sample's physical appearance (e.g., color and form), identification by Fourier-transform infrared spectroscopy (FT-IR), identification by X-ray powder diffraction (XRPD), water content (measured by Karl Fischer (KF) on a % weight/weight basis), identification of related substances (e.g., impurities), and high-performance liquid chromatography ((HPLC) measured on a % weight/weight on an anhydrous basis and solvent free basis). Samples of the crystalline composition comprising Compound 1-oxalic acid co-crystal prepared in Example 3 are subjected to accelerated aging conditions (40±2° C./75±5% relative humidity (RH)) or long-term storage conditions (25±2° C./60±5% RH). Sample stability measurements in each condition are measured at baseline (before exposure to accelerated aging conditions or long-term storage conditions), and four months, five months, six months, seven months, eight months, nine months, ten months, eleven months, twelve months, fourteen months, sixteen months, and eighteen months after exposure to said conditions. Sample stability measurements include a description of the sample's physical appearance (e.g., color and form), identification by Fourier-transform infrared spectroscopy (FT-IR), identification by X-ray powder diffraction (XRPD), water content (measured by Karl Fischer (KF) on a % weight/weight basis), identification of related substances (e.g., impurities), and high-performance liquid chromatography ((HPLC) measured on a % weight/weight on an anhydrous basis and solvent free basis).

[2] = Stability under long-term storage conditions (25±2° C./60±5% RH); format: physicochemical; set-up: key to Related Substances by HPLC: a. C07102401-F-Imp1 / Related Substances by HPLC: b. C07102401-F-Imp2 / Related Substances by HPLC: c. Any unspecified impurity / Related Substances by HPLC: d. Total impurities: BDRL: below disregard limit; settings: for Description / Identification by FT-IR / Identification by XRPD / Related Substances by HPLC: a. C07102401-F-Imp1 / Related Substances by HPLC: b. C07102401-F-Imp2 / Related Substances by HPLC: c. Any unspecified impurity / Related Substances by HPLC: d. Total impurities / Water Content by KF / Assay of Compound 1 by HPLC: long-term storage 25±2° C./60±5% RH; for Assay of Compound 1 by HPLC: on anhydrous basis and solvent free basis
Text: as §1

In the case of `CCC(CC)c1cc(C)nc2c(-c3sc(N4CCOCC4)nc3Cl)c(C)nn12` [Compound 1-oxalic acid co-crystal], the Description ([1]; 1 month) is reported as “Light yellow”, the “Identification by FT-IR” value ([1]; 1 month) is reported as “concordant” and the “Identification by XRPD” value ([1]; 1 month) is reported as “is consistent”. For the same compound, the “Related Substances by HPLC: a. C07102401-F-Imp1” value ([1]; 1 month) was “BDRL”, the “Related Substances by HPLC: b. C07102401-F-Imp2” value ([1]; 1 month) was “BDRL” and the “Related Substances by HPLC: c. Any unspecified impurity” value ([1]; 1 month) was “BDRL”. For the same compound, the “Related Substances by HPLC: d. Total impurities” value ([1]; 1 month) was “BDRL”, the “Water Content by KF” value ([1]; 1 month) was 0.09 % w/w and the Description ([1]; 2 months) was “Light yellow”. The “Identification by FT-IR” value ([1]; 2 months) was “concordant”, the “Identification by XRPD” value ([1]; 2 months) was “is consistent” and the “Related Substances by HPLC: a. C07102401-F-Imp1” value ([1]; 2 months) was “BDRL”. The “Related Substances by HPLC: b. C07102401-F-Imp2” value ([1]; 2 months) was “BDRL”, the “Related Substances by HPLC: c. Any unspecified impurity” value ([1]; 2 months) was “BDRL” and the “Related Substances by HPLC: d. Total impurities” value ([1]; 2 months) was “BDRL”. For the same compound, the “Water Content by KF” value ([1]; 2 months) was 0.02 % w/w, the Description ([1]; 3 months) was “Light yellow” and the “Identification by FT-IR” value ([1]; 3 months) was “concordant”. The “Identification by XRPD” value ([1]; 3 months) was “is consistent”, the “Related Substances by HPLC: a. C07102401-F-Imp1” value ([1]; 3 months) was “BDRL” and the “Related Substances by HPLC: b. C07102401-F-Imp2” value ([1]; 3 months) was “BDRL”. For the same compound, the “Related Substances by HPLC: c. Any unspecified impurity” value ([1]; 3 months) was “BDRL”, the “Related Substances by HPLC: d. Total impurities” value ([1]; 3 months) was “BDRL” and the “Water Content by KF” value ([1]; 3 months) was 0.08 % w/w. For the same compound, the Description ([1]; baseline) was “Light yellow”, the “Identification by FT-IR” value ([1]; baseline) was “concordant” and the “Identification by XRPD” value ([1]; baseline) was “is consistent”. The “Related Substances by HPLC: a. C07102401-F-Imp1” value ([1]; baseline) was “BDRL”, the “Related Substances by HPLC: b. C07102401-F-Imp2” value ([1]; baseline) was “BDRL” and the “Related Substances by HPLC: c. Any unspecified impurity” value ([1]; baseline) was “BDRL”. For the same compound, the “Related Substances by HPLC: d. Total impurities” value ([1]; baseline) was “BDRL”, the “Water Content by KF” value ([1]; baseline) was 0.02 % w/w and the “Assay of Compound 1 by HPLC” value ([1]; 1 month) was 99.2 % w/w. For the same compound, the “Assay of Compound 1 by HPLC” value ([1]; 2 months) was 100.1 % w/w, the “Assay of Compound 1 by HPLC” value ([1]; 3 months) was 99.2 % w/w and the “Assay of Compound 1 by HPLC” value ([1]; baseline) was 99.9 % w/w. The “Stability (overall conclusion)” value ([1]; up to 3 months at accelerated aging conditions (40±2° C./75±5% RH)) was “stable”, the Description ([2]; 1 month) was “Light yellow” and the “Identification by FT-IR” value ([2]; 1 month) was “concordant”. For the same compound, the “Identification by XRPD” value ([2]; 1 month) was “is consistent”, the “Related Substances by HPLC: a. C07102401-F-Imp1” value ([2]; 1 month) was “BDRL” and the “Related Substances by HPLC: b. C07102401-F-Imp2” value ([2]; 1 month) was “BDRL”. For the same compound, the “Related Substances by HPLC: c. Any unspecified impurity” value ([2]; 1 month) was “BDRL”, the “Related Substances by HPLC: d. Total impurities” value ([2]; 1 month) was “BDRL” and the “Water Content by KF” value ([2]; 1 month) was 0.10 % w/w. The Description ([2]; 2 months) was “Light yellow”, the “Identification by FT-IR” value ([2]; 2 months) was “concordant” and the “Identification by XRPD” value ([2]; 2 months) was “is consistent”. The “Related Substances by HPLC: a. C07102401-F-Imp1” value ([2]; 2 months) was “BDRL”, the “Related Substances by HPLC: b. C07102401-F-Imp2” value ([2]; 2 months) was “BDRL” and the “Related Substances by HPLC: c. Any unspecified impurity” value ([2]; 2 months) was “BDRL”. For the same compound, the “Related Substances by HPLC: d. Total impurities” value ([2]; 2 months) was “BDRL”, the “Water Content by KF” value ([2]; 2 months) was 0.03 % w/w and the Description ([2]; 3 months) was “Light yellow”. For the same compound, the “Identification by FT-IR” value ([2]; 3 months) was “concordant”, the “Identification by XRPD” value ([2]; 3 months) was “is consistent” and the “Related Substances by HPLC: a. C07102401-F-Imp1” value ([2]; 3 months) was “BDRL”. For the same compound, the “Related Substances by HPLC: b. C07102401-F-Imp2” value ([2]; 3 months) was “BDRL”, the “Related Substances by HPLC: c. Any unspecified impurity” value ([2]; 3 months) was “BDRL” and the “Related Substances by HPLC: d. Total impurities” value ([2]; 3 months) was “BDRL”. For the same compound, the “Water Content by KF” value ([2]; 3 months) was 0.05 % w/w, the Description ([2]; baseline) was “Light yellow” and the “Identification by FT-IR” value ([2]; baseline) was “concordant”. For the same compound, the “Identification by XRPD” value ([2]; baseline) was “is consistent”, the “Related Substances by HPLC: a. C07102401-F-Imp1” value ([2]; baseline) was “BDRL” and the “Related Substances by HPLC: b. C07102401-F-Imp2” value ([2]; baseline) was “BDRL”. For the same compound, the “Related Substances by HPLC: c. Any unspecified impurity” value ([2]; baseline) was “BDRL”, the “Related Substances by HPLC: d. Total impurities” value ([2]; baseline) was “BDRL” and the “Water Content by KF” value ([2]; baseline) was 0.02 % w/w. The “Assay of Compound 1 by HPLC” value ([2]; 1 month) was 99.2 % w/w, the “Assay of Compound 1 by HPLC” value ([2]; 2 months) was 100.1 % w/w and the “Assay of Compound 1 by HPLC” value ([2]; 3 months) was 99.2 % w/w. For the same compound, the “Assay of Compound 1 by HPLC” value ([2]; baseline) was 99.9 % w/w and the “Stability (overall conclusion)” value ([2]; up to 3 months at long-term storage conditions (25±2° C./60±5% RH)) was “stable”.
